Laboratory results from ChEMBL document CHEMBL1133121, “4-(1,3-Dimethoxyprop-2-ylamino)-2,7-dimethyl-8-(2, 4-dichlorophenyl)pyrazolo[1,5-a]-1,3,5-triazine: a potent, orally bioavailable CRF(1) receptor antagonist” (J Med Chem, 2000).
“And” between values parts separate entries of the source, which are not always exact repeats. Identical values can stand only once.

What was measured:
[1] = target: T1, Corticotropin-releasing factor receptor 1 (Homo sapiens, UniProt P34998); experiment: Displacement of [125I]-tyrosine-ovine-CRF from human Corticotropin releasing factor receptor 1
T1 sequence (P34998 whole entry): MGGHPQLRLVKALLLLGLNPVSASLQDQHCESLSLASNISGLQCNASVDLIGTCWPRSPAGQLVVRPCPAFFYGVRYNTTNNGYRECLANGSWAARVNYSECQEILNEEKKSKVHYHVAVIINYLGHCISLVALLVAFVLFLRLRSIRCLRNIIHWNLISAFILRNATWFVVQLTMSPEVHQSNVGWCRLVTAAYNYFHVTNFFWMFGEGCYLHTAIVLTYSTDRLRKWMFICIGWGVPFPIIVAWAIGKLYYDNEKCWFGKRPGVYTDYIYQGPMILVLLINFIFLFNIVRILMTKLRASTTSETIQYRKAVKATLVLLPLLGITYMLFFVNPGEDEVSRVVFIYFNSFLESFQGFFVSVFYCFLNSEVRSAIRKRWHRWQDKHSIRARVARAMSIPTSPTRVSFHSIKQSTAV

[2] = organism: Rattus norvegicus; experiment: %binding inhibition in rat ex vivo assay after one hour; format: functional; set-up: concentration or dose not given beside the values
[3] = organism: Rattus norvegicus; experiment: %binding inhibition in rat ex vivo assay after three hours; format: functional; set-up: concentration or dose not given beside the values
[4] = system: Rattus norvegicus; experiment: Tested for situational anxiety in rats by measuring the latency exit from a chamber after po comparison with the activity values; format: functional
[5] = % bioavailability value was determined in dogs after po dose of 1 mg/kg; format: ADME, organism-based, Canis lupus familiaris; conditions: dog, in vivo, read-out: Bioavailabiility
[6] = system: Canis familiaris; experiment: AUCT(nM.h) value was determined in dogs after po dose of 1 mg/kg; format: ADME, organism-based, Canis lupus familiaris, Plasma; set-up: dose 1 mg/kg, route oral; conditions: dog, in vivo
[7] = system: Rattus norvegicus; experiment: (§1) Tested for situational anxiety in rats by measuring the latency exit from a chamber after po administration; format: functional
[8] = t1/2 (h) value was determined in rats after po dose of 5 mg/kg; format: ADME, organism-based; set-up: dose 5 mg/kg, route oral; conditions: rat, in vivo
[9] = system: Canis familiaris; experiment: AUCT(nM.h) value was determined in dogs after intravenous dose of 1 mg/kg; format: ADME, organism-based, Canis lupus familiaris, Plasma; set-up: dose 1 mg/kg, route intravenous; conditions: dog, in vivo
[10] = system: Rattus norvegicus; experiment: as §1; format: functional; remark: listed apart in the source
[11] = system: Rattus norvegicus; experiment: as §1; format: functional; remark: listed apart in the source
[12] = Vss(L/kg)value was determined in dogs after intravenous dose of 1 mg/kg; format: ADME, organism-based, Canis lupus familiaris; set-up: dose 1 mg/kg, route intravenous; conditions: dog, in vivo, read-out: Vss
[13] = system: Canis familiaris; experiment: AUC(nM.h) value was determined in dogs after intravenous dose of 1 mg/kg; format: ADME, organism-based, Canis lupus familiaris, Plasma; set-up: dose 1 mg/kg, route intravenous; conditions: dog, in vivo
[14] = system: Canis familiaris; experiment: AUC(nM.h) value was determined in dogs after po dose of 1 mg/kg; format: ADME, organism-based, Canis lupus familiaris, Plasma; set-up: dose 1 mg/kg, route oral; conditions: dog, in vivo
[15] = Cmax(nM)value was determined in rats after po dose of 5 mg/kg; format: ADME, organism-based; set-up: dose 5 mg/kg, route oral; conditions: rat, in vivo
[16] = system: Rattus norvegicus; experiment: as §1; format: functional; remark: listed apart in the source
[17] = system: Rattus norvegicus; experiment: AUC(nM.h) value was determined in rats after po dose of 5 mg/kg; format: ADME, organism-based, Plasma; set-up: dose 5 mg/kg, route oral; conditions: in vivo
[18] = t1/2 (h) value was determined in dogs after po dose of 1 mg/kg; format: ADME, organism-based, Canis lupus familiaris; set-up: dose 1 mg/kg, route oral; conditions: dog, in vivo
[19] = system: Rattus norvegicus; experiment: AUCT(nM.h) value was determined in rats after po dose of 5 mg/kg; format: ADME, organism-based, Plasma; set-up: dose 5 mg/kg, route oral; conditions: in vivo
[20] = Tmax(h)value was determined in dogs after po dose of 1 mg/kg; format: ADME, organism-based, Canis lupus familiaris; set-up: dose 1 mg/kg, route oral; conditions: dog, in vivo
[21] = t1/2 (h) value was determined in dogs after intravenous dose of 1 mg/kg; format: ADME, organism-based, Canis lupus familiaris; set-up: dose 1 mg/kg, route intravenous; conditions: dog, in vivo
[22] = %bioavail value was determined in rats after po dose of 5 mg/kg; format: ADME, organism-based; set-up: dose 5 mg/kg, route oral; conditions: rat, in vivo, read-out: Bioavailabiility
[23] = system: Rattus norvegicus; experiment: CL(L/h/kg) value was determined in rats after intravenous dose of 5 mg/kg; format: ADME, organism-based; set-up: dose 5 mg/kg, route intravenous; conditions: in vivo
[24] = C5min (nM) value was determined in rats after intravenous dose of 5 mg/kg; format: ADME, organism-based; set-up: dose 5 mg/kg, route intravenous; conditions: rat, in vivo, read-out: C5 min
[25] = t1/2 (h) value of was determined in rats after intravenous dose of 5 mg/kg; format: ADME, organism-based; set-up: dose 5 mg/kg, route intravenous; conditions: rat, in vivo
[26] = Tmax(h)value was determined in rats after po dose of 5 mg/kg; format: ADME, organism-based; set-up: dose 5 mg/kg, route oral; conditions: rat, in vivo
[27] = Vss(L/kg) value was determined in rats after intravenous dose of 5 mg/kg; format: ADME, organism-based; set-up: dose 5 mg/kg, route intravenous; conditions: rat, in vivo, read-out: Vss
[28] = C5min (nM) value was determined in dogs after intravenous dose of 1 mg/kg; format: ADME, organism-based, Canis lupus familiaris; set-up: dose 1 mg/kg, route intravenous; conditions: dog, in vivo, read-out: C5 min
[29] = CL (L/h/kg) value was determined in dogs after intravenous dose of 1 mg/kg; format: ADME, organism-based, Canis lupus familiaris; set-up: dose 1 mg/kg, route intravenous; conditions: dog, in vivo, read-out: Vss (converted)
[30] = organism: Rattus norvegicus; experiment: % binding inhibition in rat ex vivo assay after one hour; format: functional
[31] = organism: Rattus norvegicus; experiment: % binding inhibition in rat ex vivo assay after three hours; format: functional

## CCCC(CCC)Nc1nc(C)nc2c(-c3ccc(Cl)cc3Cl)c(C)nn12
[1]
  Ki: 1.6 nM
[2]
  Binding inhibition: 63.9%
[3]
  Binding inhibition: 74.8%

## CCCN(CCC)c1nc(C)nc2c(-c3ccc(Cl)cc3Cl)c(C)nn12
[1]
  Ki: 0.6 nM

## CNC1=Nc2ccc(Cl)cc2C(c2ccccc2)=[N+]([O-])C1 [CHLORDIAZEPOXIDE]
[4]
  Latency to exit: <216

## CCCC(CC)Nc1nc(C)nc2c(-c3ccc(Cl)cc3Cl)c(C)nn12 (centres undefined)
[1]
  Ki: 1.2 nM
[2]
  Binding inhibition: 46.6%
[3]
  Binding inhibition: 67%

## CCC(COC)Nc1nc(C)nc2c(-c3ccc(Cl)cc3Cl)c(C)nn12 (centres undefined)
[1]
  Ki: 1.9 nM

## Cc1nc(N(C)c2ccccc2)n2nc(C)c(-c3ccc(Cl)cc3Cl)c2n1
[1]
  Ki: 44.5 nM

## CCOCC(COCC)Nc1nc(C)nc2c(-c3ccc(Cl)cc3Cl)c(C)nn12
[1]
  Ki: 6.2 nM

## CCCCC(CC)Nc1nc(C)nc2c(-c3ccc(Cl)cc3Cl)c(C)nn12 (centres undefined)
[1]
  Ki: 1.6 nM

## CCCN(CC1CC1)c1nc(C)nc2c(-c3ccc(Cl)cc3Cl)c(C)nn12
[1]
  Ki: 0.7 nM
[2]
  Binding inhibition: 73.3%
[3]
  Binding inhibition: 95.4%

## COCC(COC)Nc1nc(C)nc2c(-c3ccc(Cl)cc3Cl)c(C)nn12
[5]
  bioavailability: 49.7%
[6]
  AUC T: 0.469 µM·h
[7]
  Latency to exit: <408
[8]
  half-life: 16.5 h
[9]
  AUC T: 2.27 µM·h
[10]
  Latency to exit: <426 and <286
[11]
  Latency to exit: <482
[12]
  Vd: 27.1 L/kg
[13]
  AUC: 2.69 µM·h
[14]
  AUC: 555 Nm.H
[15]
  Cmax: 317 nM
[16]
  Latency to exit: 680
[17]
  AUC: 2.26 µM·h
[18]
  half-life: 33.4 h
[19]
  AUC T: 1.86 µM·h
[20]
  Tmax: 0.88 h
[1]
  Ki: 1.7 nM
[21]
  half-life: 34.5 h
[22]
  bioavailability: 36.7%
[23]
  CL: 2 kg⁻¹ h⁻¹
[24]
  concentration at 5 min: 2880 nM
[25]
  half-life: 12.3 h
[2]
  Binding inhibition: 78.2%
[26]
  Tmax: 0.44 h
[27]
  Vd: 21.5 L/kg
[3]
  Binding inhibition: 81.3%
[28]
  concentration at 5 min: 1370 nM
[29]
  clearance: 15.8 mL/min/kg

## CCCCN(CC)c1nc(C)nc2c1c(C)cn2-c1c(C)cc(C)cc1C.Cl
[2]
  Binding inhibition: <10%
[3]
  Binding inhibition: <10%

## CCC(CC)Nc1nc(C)nc2c(-c3ccc(Cl)cc3Cl)c(C)nn12
[1]
  Ki: 1.1 nM
[2]
  Binding inhibition: 65.9%
[3]
  Binding inhibition: 71.8%

## COCCN(CCOC)c1nc(C)nc2c(-c3ccc(Cl)cc3Cl)c(C)nn12
[1]
  Ki: 1.8 nM
[2]
  Binding inhibition: 85.4%
[3]
  Binding inhibition: 92.9%

## CCCCN(CC)c1nc(C)nc2c(-c3ccc(Cl)cc3Cl)c(C)nn12
[30]
  Binding inhibition: 73.2%
[31]
  Binding inhibition: 82.9%
[1]
  Ki: 0.4 nM
